The structures appear in SMILES notation.

One assay relates to U-251. Put plainly: Growth inhibitory activity was measured for human U251MG NCI tumor cell line. In kind it is functional. As to conditions: read-out: ID50 (the source's name).
Assay [1] concerns DU-145. Put plainly: Growth inhibitory activity was measured for human DU145 tumor cell line. In kind it is functional. As to conditions: read-out: ID50 (the source's name).
Another assay has as its system A549. Put plainly: Growth inhibitory activity was measured for human A549 tumor cell line. In kind it is functional. As to conditions: read-out: ID50 (the source's name).
For another assay, the system named is HT-29. Put plainly: Growth inhibitory activity was measured for human HT-29 tumor cell line. In kind it is functional. As to conditions: read-out: ID50 (the source's name).
A further assay relates to MCF7. Put plainly: Growth inhibitory activity was measured for human MCF-7 tumor cell line. In kind it is functional. Conditions: read-out: ID50 (the source's name).
Assay [2] concerns DU-145. Put plainly: The concentration levels of analogue evaluated in DU145 cells treated with the compound concentration of 5 uM on third day of treatment. In kind it is functional, cell-based. Conditions: Homo sapiens.
Assay [3] concerns DU-145. Put plainly: The concentration levels of spermidine (SD) evaluated in DU145 cells treated with the compound concentration of 5 uM on fifth day of treatment. In kind it is functional, cell-based. Conditions: Homo sapiens.
Assay [4] relates to DU-145. Put plainly: The concentration levels of putrescine (PU) evaluated in DU145 cells treated with the compound concentration of 0.02 uM on fifth day of treatment. In kind it is functional, cell-based. Conditions: Homo sapiens.
Assay [5] concerns DU-145. Put plainly: The concentration levels of spermidine (SD) evaluated in DU145 cells treated with the compound concentration of 0.02 uM on fifth day of treatment. In kind it is functional, cell-based. As to conditions: Homo sapiens.
Assay [6] concerns DU-145. Put plainly: The concentration levels of analogue evaluated in DU145 cells treated with the compound concentration of 0.02 uM on third day of treatment. Conditions: Homo sapiens. In kind it is functional, cell-based.
In assay [7] the test system is DU-145. Put plainly: The concentration levels of analogue evaluated in DU145 cells treated with the compound concentration of 5 uM on fifth day of treatment. In kind it is functional, cell-based. As to conditions: Homo sapiens.
The test system of assay [8] is DU-145. Put plainly: The concentration levels of putrescine (PU) evaluated in DU145 cells treated with the compound concentration of 0.02 uM on third day of treatment. As to conditions: Homo sapiens. In kind it is functional, cell-based.
For assay [9], the system named is DU-145. Put plainly: The concentration levels of analogue evaluated in DU145 cells treated with the compound concentration of 0.02 uM on fifth day of treatment. In kind it is functional, cell-based. As to conditions: Homo sapiens.
In assay [10] the test system is DU-145. Put plainly: The concentration levels of spermidine (SD), evaluated in DU145 cells treated with the compound concentration of 5 uM on third day of treatment. As to conditions: Homo sapiens. In kind it is functional, cell-based.
For assay [11], the system named is DU-145. Put plainly: The concentration levels of spermidine (SD), evaluated in DU145 cells treated with the compound concentration of 0.02 uM on third day of treatment. In kind it is functional, cell-based. As to conditions: Homo sapiens.
Assay [12] has as its system DU-145. Put plainly: The concentration levels of spermine (SP), evaluated in DU145 cells treated with the compound concentration of 0.02 uM on third day of treatment. In kind it is functional, cell-based. Conditions: Homo sapiens.
In assay [13] the test system is DU-145. Put plainly: The concentration levels of putrescine (PU) evaluated in DU145 cells treated with the compound concentration of 5 uM on fifth day of treatment. In kind it is functional, cell-based. Conditions: Homo sapiens.
Assay [14] has as its system DU-145. Put plainly: The concentration levels of putrescine (PU) evaluated in DU145 cells treated with the compound concentration of 5 uM on third day of treatment. In kind it is functional, cell-based. Conditions: Homo sapiens.
Assay [15] deals with DU-145. Put plainly: The concentration levels of spermine (SP) evaluated in DU145 cells treated with the compound concentration of 5 uM on fifth day of treatment. In kind it is functional, cell-based. Conditions: Homo sapiens.
In assay [16] the test system is DU-145. Put plainly: The concentration levels of spermine (SP) evaluated in DU145 cells treated with the compound concentration of 0.02 uM on fifth day of treatment. In kind it is functional, cell-based. Conditions: Homo sapiens.
In assay [17] the test system is DU-145. Put plainly: The concentration levels of spermine (SP), evaluated in DU145 cells treated with the compound concentration of 5 uM on third day of treatment. In kind it is functional, cell-based. Conditions: Homo sapiens.
A further assay relates to PC-3. Put plainly: Growth inhibitory activity was measured for human PC-3 tumor cell line. In kind it is functional. As to conditions: read-out: ID50 (the source's name).

Consider `CCNCCCNCC1CC1CNCCCNCC` (stereo in doubt; 9), for which the IC50 in the assay with U-251 worked out at 100 nM; in the assay with DU-145 [1], 20 nM; in the assay with A549, 120 nM.
Regarding `CCNCCCNC/C=C/CNCCCNCC`, the IC50 with DU-145 [1] (Homo sapiens, DU-145) is 140 nM.
As for `CCNCCCNCC1CCC1CNCCCNCC` (stereo in doubt; 15), the IC50 was 1600 nM in the assay on HT-29 (Homo sapiens, HT-29); above 31200 nM in the assay on MCF7; 120 nM in the assay with U-251; 10 nM in the assay on DU-145 [1].
As for `CCNCCCNC/C=C\CNCCCNCC`, the Concentration (nM (10e6*cells)-1) stood at 2.76 in the assay with DU-145 [2]; 0.02 in the assay with DU-145 [3]; 0.04 in the assay on DU-145 [4]; 1.73 in the assay on DU-145 [5]; 0.04 with DU-145 [6]; 2.54 in the assay on DU-145 [7]. Besides, the Concentration (nM (10e6*cells)-1) is 0.11 with DU-145 [8]; 0.03 in the assay with DU-145 [9]; 0.02 with DU-145 [10]; 1.79 with DU-145 [11]; 2.99 with DU-145 [12]; 0.03 with DU-145 [13]. Also, the Concentration (nM (10e6*cells)-1) was found to be 0.06 in the assay on DU-145 [14], 0.07 in the assay with DU-145 [15], 1.71 with DU-145 [16] and 0.09 in the assay with DU-145 [17]. Also, the IC50 in the assay on DU-145 [1] (Homo sapiens, DU-145) was found to be 50 nM; in the assay with A549 (Homo sapiens, A549), 250 nM.
Regarding `CCNCCCNCC1CC1CNCCCNCC` (stereo in doubt; 5), the IC50 with HT-29 was 1400 nM; in the assay with DU-145 [1], 60 nM; with A549, 250 nM; with PC-3, 12400 nM.

For the origin of these results see ChEMBL document CHEMBL1131189, “Conformationally restricted analogues of 1N,12N-bisethylspermine: synthesis and growth inhibitory effects on human tumor cell lines” (1998).
